# Several values for one entry are separate records, joined by “and”; a condition that tells them apart may be missing. Identical values can stand only once. Like-named read-outs stand apart in the source and are kept apart here. Marks after values point to notes of the source that are not given here.
# Legend:
# [1] = tested on: HIV-1 strains (SKI, RF, DV, IIIB, ADP/141); assay: microbe, parasite or virus in culture; format: cell-based
# HIV-1RF = assay: HeLa-CD4-LTR-β-galactosidase cell virus infection assay; format: cell-based
# [2] = target: recombinant HIV-1 integrase (wild-type) (Human immunodeficiency virus type 1 group M subtype B, UniProt P12497); assay: HIV-1 integrase 3′-processing and strand transfer assays; format: biochemical; design: Purified recombinant HIV-1 integrase enzyme (wild-type) was a generous gift from Dr. R. Craigie; purchased gift of Dr. R. Craigie, Laboratory of Molecular Biology, NIDDK (not bought)
# Method: Integrase enzyme assays. Purified recombinant HIV-1 integrase enzyme (wild-type) was a generous gift from Dr. R. Craigie, Laboratory of Molecular Biology, National Institute of Diabetes and Digestive and Kidney Diseases. The enzyme (0.25 μM) was preincubated in reaction buffer at 20° C. for 30 minutes. All 3′-processing and strand-transfer reactions were performed as described previously by Fresen et al. (Fresen, et al., Proc. Natl. Acad. Sci. USA 90:2399-2403 (1993)) and Mazumder et al. (Mazumder, et al., Proc. Natl. Acad. Sci. USA 91:5771-5775 (1994)). Enzyme reactions were quenched by the addition of Maxam-Gilbert loading dye, and an aliquot was electrophoresed on a denaturing 20% polyacrylamide gel. Gels were then dried and subjected to autoradiography using Kodax XAR-2 film or exposed in a Molecular Dynamics Phospholmager cassette.
# Integrase was preincubated at a final concentration of 200 (for HIV-1 and HIV-2) or 600 nM (for FIV and SIV) with inhibitor in reaction buffer (50 mM Nac1, 1 mM HEPES, pH 7.5, 50 μM dithiothreitol, 10% glycerol (wt/vol), 7.5 mM MnCl2 or MgCL2 (when specified), 0.1 mg/mL bovine serum albumin, 20 mM 2-mercaptoethanol, 10% dimethyl sulfoxide, and 25 mM MOPS, pH 7.2) at 30° C. for 30 minutes. When magnesium was used as the divalent metal ion, polyethylene glycol was added at a final concentration of 5% to increase activity as previously described (Engelman & Craigie, 1995). Preincubation for 30 minutes of the enzyme with inhibitor was performed to optimize increases the inhibitory activity in the 3′-processing reaction (Fesen et al., 1994). Then, 30 nM of the 5′-end ^32P-labeled linear oligonucleotide substrate was added, and incubation was continued for an additional 1 hr. The final reaction volume was 16 μL.
# Electrophoresis and quantitation. Reactions were quenched by the addition of an equal volume […] of loading dye (98% deionized formamide, 10 mM EDTA, 0.025% xylene cyanol, 0.025% bromophenol blue). An aliquot (5 μL) was electrophoresed on a denaturing 20% polyacrylamide gel (0.09 M Tris-borate pH 8.3, 2 mM EDTA, 20% acrylamide, 8M urea). Gels were dried, exposed in a Molecular Dynamics Phosphorimager cassette, and analyzed using a Molecular Dynamics phosphorimager (Sunnyvale, Calif.). Percent inhibition was calculated using the following equation:
# where C, N, and D are the fractions of 21mer substrate converted to 19mer (3′-processing product) or strand transfer products for DNA alone, DNA plus integrase, and integrase plus drug, respectively.
# Antiviral assay. The RF laboratory strain of HIV-1 was used to infect established cell lines for one hour at 37° C. prior to washing and resuspension in medium containing increasing concentrations of drug. […] Purified recombinant HIV-1 integrase enzyme (wild-type) was a generous gift from Dr. Craigie, Laboratory of Molecular Biology, NIDDK. All 3′-processing and strand-transfers were performed as described previously by Fresen et al. (Fresen et al. (1993) Proc. Natl. Acad. Sci. VSA 90, 2399-2403) and Mazurnder et al. (Mazumder et al. (1994) Proc. Natl. Acad. Sci. USA 91, 5771-75).
# [3] = Oligomer folding by circular dichroism; conditions: for midpoint of K+ induced folding transition (CD, 264 nm): KCl, 25° C., 20 mM Li3PO4
# [4] = Thermal denaturation of oligomer fold (UV, Tm); format: physicochemical
# [5] = target: HIV-1 integrase (wild-type and deletion mutants) (Human immunodeficiency virus type 1 group M subtype B, UniProt P12497); assay: UV crosslinking DNA binding experiments; conditions: enzyme preincubated with oligo
# Method: UV crosslinking experiments. The method used has been described by Engleman et al. Engelman, et al., J. Virol. 68, 5911-5917 (1994). Briefly, integrase (at the indicated concentration) was incubated with substrate in reaction buffer as above for 5 minutes at 30° C. Reactions were then irradiated with a UV transilluminator (254 nm wavelength) from 3 cm above (2.4 mW/cm2) at room temperature for 10 minutes. An equal volume (16 μL) of 2X SDS-PAGE buffer (100 mM Tris, pH 6.8, 4% 2-mercaptoethanol, 4% SDS, 0.2% bromophenol blue, 20% glycerol) was added to each reaction. Twenty μL aliquots were heated at 95° C. for 3 minutes prior to loading on a 12% or 18% SDS-polyacrylamide gel. The gel was run at 120 V for 1.5 hours, dried, and exposed in a Phosphorlmager cassette. […] For the competition experiments (FIG. 29), integrase (200 nM) was preincubated with either the radiolabeled viral DNA substrate (20 nM) or T30177 (20 nM) for 5 minutes at 30° C. prior to the addition of competitor DNA at the indicated concentration.
# HIV-1 RT = HIV-1 RT (Human immunodeficiency virus type 1 group M subtype B, UniProt P04585); assay: In vitro inhibition of HIV-1 RT (kinetic analysis); format: biochemical
# HIV-1DV [6] = assay: HIV-1 p24 production in SUP T1 cells; format: cell-based
# HIV-1DV [7] = assay: Analysis of HIV-1 RNA and DNA in single cycle assays, SUP T1; format: cell-based
# HIV-1 strain DV = assay: HIV-1 induced syncytia formation assay in SUP T1 cells; format: cell-based
# [8] = target: T1, recombinant RT (HIV-1BH10) (Human immunodeficiency virus type 1 group M subtype B, UniProt P03366); assay: Reverse transcriptase enzyme inhibition assays; format: biochemical; conditions: read-out: IC50 recombinant HIV-1 RT
# T1 construct: Purified recombinant RT (HIV-1BH10) was obtained from the University of Alabama; purchased University of Alabama, Center for AIDS research (obtained from)
# HIV-1IIIB = assay: Time of drug addition study, MT-4 cells (p24); format: cell-based; conditions: 100-fold IC50, MOI 1, p24 at 29 hour
# HIV-1SKI = assay: Single cycle analysis of HIV-1 cDNA, CEM-SS cells; format: cell-based; conditions: 10- to 100-fold over IC50
# [9] = tested on: CD4- and gp120-mediated cell fusion; assay: cells; format: cell-based; conditions: HL2/3, read-out: IC50 CD4- and gp120-mediated cell fusion
# [10] = HIV-1 RF, CEM-SS or MT4, read-out: Antiviral Assay IC50 RF
# [11] = strand transfer, read-out: Anti-Integrase Assay IC50 strand tran.
# [12] = anti-HIV-1 virus production, read-out: Cell Culture IC50
# [13] = cell culture, read-out: IC50 HIV-1RF
# [14] = read-out: Enzyme IC50 3-′process
# [15] = HIV-1 IIIB, CEM-SS or MT4, read-out: Antiviral Assay IC50 IIIB
# [16] = HIV-1 SKI, CEM-SS or MT4, read-out: Antiviral Assay IC50 SKI
# [17] = 3′-processing, read-out: Anti-Integrase Assay IC50 3′-proc
# [18] = Human immunodeficiency virus 1, IIIB, CEM-SS, read-out: Antiviral Assay IC50 IIIB, HIV-1 IIIB, CEM-SS or MT4
# [19] = Human immunodeficiency virus 1, IIIB, CEM-SS, read-out: Antiviral Assay IC50 RF, HIV-1 RF, CEM-SS or MT4
# [20] = Human immunodeficiency virus 1, IIIB, CEM-SS, read-out: Antiviral Assay IC50 SKI, HIV-1 SKI, CEM-SS or MT4
compound,measurement,setting,value
"5′-GTGATGGGTGGGTGGGT-3′ (phosphorothioate termini, further chemistry not given here) [T30526, pPT, dA for dG, tetrad-disrupted mutant of T30177]",IC50,[1]; [10],11700 nM
same,less potent than T30177 at inhibiting virus-infected cell β-galactosidase production,HIV-1RF,10-15 fold
same,IC50,[2]; [11],123 nM
5′-gggtgggtgggtgggt-3′ [T30695],"midpoint of K+ induced folding transition (CD, 264 nm)",[3],~0.02 mM
same,midpoint of Rb+ induced folding transition (CD),[3]; RbCl,0.5 mM
same,IC50,[1]; [12],70 nM
same,IC50,[1]; [13],70 nM
same,Tm,[4]; 1 mM KCl,67 °C
same,Tm,"[4]; 10 mM KCl, calculated from linear fit",87* ° C.
same,Tm,"[4]; 180 mM KCl, calculated from linear fit",110* ° C.
same,IC50,[2]; [14],20 nM
same,IC50,[2]; read-out: Enzyme IC50 Stran Trans,60 nM
same,IC50,[2]; read-out: IC50 3′-PROC,43 ± 17 nM
same,IC50,[2]; read-out: IC50 STR · TRA,24 ± 4 nM
"5′-ggttggtgtggttgg-3′ [T30659, reference compound]",inhibition of integrase binding to radiolabeled U5 DNA substrate,[5],only modest inhibition of DNA binding
same,IC50,[1]; [15],> 20000 nM
same,IC50,[1]; [10],> 20000 nM
same,IC50,[1]; [16],2810 nM
same,IC50,[1]; [12],> 20000 nM
same,IC50,[2]; [17],> 500 nM
same,IC50,[2]; [14],750 nM
same,IC50,[2]; [11],> 500 nM
"5′-gtggtgggtgggtgggt-3′ (GTGGTGGGTGGGTGGGT; phosphodiester, 3'-propanolamine, further chemistry not given here) [I100-15, 17 mer PD, 3′-propanolamine]",Ki,HIV-1 RT,> 5000 nM
same,IC50,HIV-1 RT; read-out: ID50 (the source's name),> 5000 nM
same,"Percent p24 relative to infected untreated control, Day 7","HIV-1DV [6]; 2.5 uM, drug removed day 4",0.0%
same,"Percent p24 relative to infected untreated control, Day 11","HIV-1DV [6]; 2.5 uM, drug removed day 4",0.0%
same,"Percent p24 relative to infected untreated control, Day 4","HIV-1DV [6]; 2.5 uM, medium replaced day 4",0.0%
same,IC50,"HIV-1DV [6]; SUP T1, HIV-1DV, four days",80 nM
same,viral DNA synthesis (PCR),HIV-1DV [7]; 36 hr post-infection,minimal
same,HIV-1 specific transcript (RT-PCR),HIV-1DV [7]; drug added at zero hours,reduced level of HIV-1 specific transcript
same,T.I. (therapeutic index),HIV-1 strain DV,>200
same,IC50,"HIV-1 strain DV; SUP T1, HIV-1DV, four days, read-out: IC50 Syn (syncytium inhibition)",125 nM
same,IC50,"HIV-1 strain DV; size variants of I100-15, read-out: IC50 Syn.",160 nM
"5′-gtggtgggtgtggtgggt-3′ (GTGGTGGGTGTGGTGGGT; phosphorothioate termini, further chemistry not given here) [T30676, pPT variant T30177]","midpoint of K+ induced folding transition (CD, 264 nm)",[3],0.27 mM
same,IC50,[1]; [12],1000 nM
same,IC50,[1]; [13],1000 nM
same,Tm,[4]; 1 mM KCl,33 °C
same,Tm,[4]; 10 mM KCl,46 °C
same,Tm,[4]; 180 mM KCl,65 °C
same,IC50,[2]; [14],134 nM
same,IC50,[2]; read-out: IC50 STR · TRA,134 ± 16 nM
"Cc1cn([C@H]2C[C@H](N=[N+]=[N-])[C@@H](COP(=O)(O)OP(=O)(O)OP(=O)(O)O)O2)c(=O)[nH]c1=O [AZT 5′-triphosphate, reference compound]",IC50,"[8]; template gapped duplex DNA, duplicate experiments",470 nM and 400 nM
same,IC50,"[8]; template poly(rA)p(dT)12-18, duplicate experiments",590 nM and 600 nM
"COc1cc(-c2ccc(/N=N/c3ccc4c(S(=O)(=O)O)cc(S(=O)(=O)O)c(N)c4c3O)c(OC)c2)ccc1/N=N/c1ccc2c(S(=O)(=O)O)cc(S(=O)(=O)O)c(N)c2c1O [CSB, Chicago sky blue]",delay of drug addition post-infection at which inhibitory effect is lost,HIV-1IIIB,one hour post-virus infection
same,"viral cDNA 12 hours post-infection, drug added at time of infection",HIV-1SKI,no detectable viral DNA
same,IC50,[1]; [18],600 nM
same,IC50,[1]; [19],1700 nM
same,IC50,[1]; [20],1600 nM
same,IC50,[9],800 nM
same,IC50,"HIV-1RF; Human immunodeficiency virus 1, HIV-1RF, read-out: IC50 β-galactosidase production, virus infection assay",260 nM
CC(C)OC(=O)c1cc(NC(=S)OC(C)C)ccc1Cl [UC38],"viral cDNA 12 hours post-infection, drug added at time of infection",HIV-1SKI,no detectable viral DNA
same,IC50,[1]; [15],90 nM
same,IC50,[1]; [10],20 nM
same,IC50,[1]; [16],90 nM
"Nc1ccn([C@H]2CC[C@@H](CO)O2)c(=O)n1 [ddC, 2′,3′-dideoxycytidine]","viral cDNA 12 hours post-infection, drug added at time of infection",HIV-1SKI,no detectable viral DNA
same,IC50,[1]; [18],78 nM
same,IC50,[1]; [19],57 nM
same,IC50,[1]; [20],260 nM
same,IC50,"[1]; Human immunodeficiency virus 1, IIIB, CEM-SS, read-out: IC50 virus production, HIV-1 RF, CEM-SS, MOI 0.01",57 nM
same,IC50,[2]; [17],> 1000 nM
same,IC50,[2]; [11],> 1000 nM

# — patent US6355785B1, “Guanosine-rich oligonucleotide integrase inhibitors” (Aronex Pharmaceuticals, Inc., priority 1993, dated 2002)
